From US7311892B2, “Multidrug multiligand conjugates for targeted drug delivery” (priority 2001, dated 2007)

How the values were obtained:
[1] = tested on: NCI-H1299 non-small cell lung cancer cells; test: Apoptosis induction assay (Annexin V-FITC, flow cytometry); type: cell-based; conditions: 50 nM, 3 hours exposure, then drug-free medium; analysed after 96 hours; triplicate
Protocol: Apoptosis was measured by an Annexin V-FITC kit. […] 2.3%, 2.5% and 2.4% induction for untreated cells, free PTX, the BTN/SaV complex and the BTN/SaV+PTX controls, respectively.
FIG. 6 illustrates the results of an apoptosis induction assay, illustrating NCI-HI299 cells are induced to undergo apoptosis specifically in response to the PTX-BBN[7-13]-BTN-SaV conjugate. Cells were grown as described above and in Example 3 and left untreated or treated with 50 nM of the PTX-BBN[7-13]-BTN-SaV conjugate, unconjugated paclitaxel (PTX), the biotin/streptavidin complex (BTN/SaV) or a mixture of BTN/SaV and PTX. After 3 hours, the media containing these additives was removed and replaced with fresh media. After 96 hours, the cells were removed from the 24 well plates by treatment with trypsin/EDTA and analyzed for Annexin V by flow cytometry using an Annexin V-FITC kit (Biovision, Palo Alto, Calif.). All treatments were done in triplicate and presented as the percentage of cells staining with Annexin V-FITC. […]
The HI299 cells were plated in 24 well plates at a density of 10,000 cells/well and allowed to adhere for 24 hours. […] After 96 hours, the cells were removed from the 24 well plates by treatment with trypsin/EDTA and analyzed for Annexin V by flow cytometry using an Annexin V-FITC kit (Biovision, Palo Alto, Calif.). […]

[2] = tested on: NCI-H1299 non-small cell lung cancer cells; test: Cell proliferation assay; type: cell-based; conditions: Homo sapiens, 50 nM, 3 hours exposure, then drug-free medium, cells counted after 96 hours, normalized to untreated cells, quadruplicate, read-out: growth inhibition
Protocol: Cells were grown as described in Example 2 and exposed to various treatments. The cells were left untreated or treated with 50 nM of the PTX-BBN[7-13]-BTN-SaV conjugate, unconjugated paclitaxel (PTX), the biotin/streptavidin complex (BTN/SaV) or a mixture of BTN/SaV and PTX. After 3 hours, the media containing these additives was removed and replaced with fresh media. After 96 hours, the cells were removed from the 24 well plates by treatment with trypsin/EDTA and counted with a Coulter particle counter. All treatments were done in quadruplicate and the cell counts were normalized to the untreated cells.
To evaluate the growth inhibitory effects of the PTX-BBN[7-13]-BTN/SaV conjugate, experiments were designed to compare the effect of the conjugate with the unconjugated paclitaxel, the BTN/SaV complex and a mixture of free PTX and the BTN/SaV complex (FIG. 5).
The HI299 cells were plated in 24 well plates at a density of 10,000 cells/well and allowed to adhere for 24 hours. The cells were treated with 50 nM of the following: 1) no treatment (Untreated); 2) unconjugated paclitaxel(PTX); 3) biotin/streptavidin complex (BTN/SaV); 4) a mixture of BTN/SaV and PTX; and 5) the PTX-BBN[7-13]-BTN/SaV conjugate (Conjugate) described in FIG. 1A. […] After 96 hours, the cells were removed from the 24 well plates by treatment with trypsin/EDTA and counted with a Coulter particle counter. […]

SMILES: CC(=O)O[C@H]1C(=O)[C@@]2(C)[C@H]([C@H](OC(=O)c3ccccc3)[C@]3(O)C[C@H](OC(=O)[C@H](O)[C@@H](NC(=O)c4ccccc4)c4ccccc4)C(C)=C1C3(C)C)[C@]1(OC(C)=O)CO[C@@H]1C[C@@H]2O [free PTX, paclitaxel]
- induction of apoptosis (percentage of cells staining with Annexin V-FITC) [1]: ~2.3%
- inhibition at 0.05 µM [2]: 0%
